Here are results for one compound from paper PMC10000267, “ALA‐A2 Is a Novel Anticancer Peptide Inspired by Alpha‐Lactalbumin: A Discovery from a Computational Peptide Library, In Silico Anticancer Peptide Screening and In Vitro Experimental Validation” (Global Challenges, 2023).

Residues, ends and D or L forms follow the SMILES beside them.

For data set [1], the system named is MDA‐MB‐231 breast cancer cells. Description: In vitro cancer cytotoxicity (MTT assay). Type of data set: cell-based, human. Particulars: MDA‐MB‐231, peptide 200 µM, 24 h. The protocol: (§1) All cell lines were obtained from the American Type Culture Collection (ATCC, Manassas, VA, USA). The A549 lung adenocarcinoma (ATCC CCL‐185TM), MDA‐MB‐231 triple‐negative breast adenocarcinoma (ATCC HTB‐26TM), and SH‐SY5Y neuroblastoma (ATCC CRL‐2266TM) cell lines were cultured in Dulbecco's Modified Eagle's Medium (DMEM)‐high glucose (Gibco, Thermo Fisher Scientific, MA, USA). HT29 colon adenocarcinoma (ATCC HTB‐38) cell lines were maintained in DMEM/Nutrient Mixture F‐12 (Gibco). K562 chronic myeloid leukemia (ATCC CRL‐3344) were grown in Roswell Park Memorial Institute Medium 1640 (Gibco). The cells were cultured in medium supplemented with 10% fetal bovine serum (Gibco) and 1× penicillin/streptomycin (Gibco) and incubated in a 5% CO2 incubator with saturated humidity.
(§2) The protocol previously described by Chiangjong et al. and Baindara et al.^[ [5], [29] ^] was modified for use in determining the cytotoxicity of peptides on the various cancer types. Adherent cells were seeded at 1 × 10^4 cells/well into a 96‐well plate 24 h prior to replacing the media containing the peptide of interest. Suspended cells were seeded at 1 × 10^4 cells/well in the media containing the peptide of interest. Five human cell lines, including lung cancer (A549), colon cancer (HT29), breast cancer (MDA‐MB‐231), neuroblastoma (SH‐SY5Y), and leukemia (K562) cells, were treated with the culture media containing the peptides at 200 µM for 24 h. Cell viability was then determined using Cell Proliferation Kit I, MTT (Roche Diagnostics GmbH, Mannheim, Germany): MTT labeling reagent (10 µL) was added to each well and incubated at 37 °C in a 5% CO2 atmosphere for 4 h. After incubation, 100 µL solubilizing solution was added to each well and incubated at 37 °C in 5% CO2 overnight. The absorbance at 570 nm (A 570) was measured for each well. The percentage of cell viability was calculated as: (1) % Cell Viability=[A570 of treated cells − A570 of media/A570 of untreated cells−A570 of media] × 100
Background: Tetrazolium dyes change colour on reduction, which living cells bring about.

The subject of data set [2] is SH‐SY5Y neuroblastoma cells. Description: In vitro cancer cytotoxicity (MTT assay). In kind it is cell-based, human. Particulars: peptide 200 µM, 24 h. The protocol: as §1, §2
In the next data set the test system is K562 leukemia cells. Description: In vitro cancer cytotoxicity (MTT assay). In kind it is cell-based, human. Particulars: K562, peptide 200 µM, 24 h. The protocol:
as §1, §2

Another data set has as its system A549 cells. Description: Autophagy activity assay. In kind it is cell-based, human. The following applies: A549, 200 µM, 24 h; autophagosome/autophagolysosome signal normalised to nuclear signal; three biological replicates. The protocol:
A549 cells (1 × 10^4 cells/well in a 96‐well plate) were treated with 200 µM ALA‐A2. Treated cells were maintained for 24 h before determining autophagy activity using an autophagy assay kit (ab139484, Abcam, Milpitas, CA). To prepare for the staining, the media was removed, and the cells were washed once with 1× assay buffer. The dual color detection solution was added to the wells and incubated for 30 min. The cells were washed and 1× assay buffer added to each well. The nuclear signal was excitation of 340 nm and […], whereas autophagosomes and autophagolysosomes were detected by excitation of 480 nm and emission of 530 nm. Autophagy activity was calculated by normalizing the autophagosome/autophagolysosome signal to the nuclear signal. Rapamycin (2 µM), a known autophagy inducer, was the positive control.^[ [33] ^] This experiment was performed in three biological replicates.

For a further data set, the system named is Human red blood cells. Description: Ex vivo hemolysis assay (RBC lysis assay). In kind it is cell-based. Particulars: ≈0.8% v/v human RBC suspension in 0.9% normal saline, peptide 200 µM, 1 h, room temperature, absorbance 415 nm, relative to 1% Triton X‐100; blood of three healthy individuals, mean ± SD. The protocol: The hemolysis assay was as described previously.^[ [30] ^] After informed consent, peripheral blood (3 mL) was collected from three healthy individuals into heparin tubes (BD Biosciences, NJ, USA). The specimen was centrifuged at 2000 × g for 5 min at room temperature, and the plasma was discarded. The RBCs were washed twice with PBS and then resuspended in 0.9% normal saline solution at a volume equivalent to that of the original plasma. Approximately 0.8% v/v RBC suspension was incubated with the peptides at 200 µM (100 µL final volume) in a U‐bottom 96‐well plate at room temperature for 1 h with agitation. 1% v/v Triton X‐100 was applied as a positive control. The untreated condition served as the blank control. After 1 h incubation, the supernatants were collected by centrifuging at 2000 × g for 5 min at room temperature. The absorbance of hemoglobin in the supernatant was measured at 415 nm. The hemolysis percentage was calculated as follows: (2) % Hemolysis = [sample absorbance−blank control/positive control−blank control] × 100

Regarding `CC(C)C[C@H](NC(=O)[C@@H](N)CCCCN)C(=O)N[C@@H](Cc1c[nH]c2ccccc12)C(=O)N[C@@H](CS)C(=O)N[C@@H](CCCCN)C(=O)N[C@@H](CO)C(=O)N[C@@H](CO)C(=O)N[C@@H](CCC(N)=O)C(=O)N[C@H](C(=O)N1CCC[C@H]1C(=O)N[C@@H](CCC(N)=O)C(=O)N[C@@H](CO)C(=O)N[C@@H](CCCNC(=N)N)C(=O)O)C(C)C` [ALA‐A2] (H-KLWCKSSQVPQSR-OH), the “anticancer effect (in words)” value (in data set [1]; in data set [2]; with K562 leukemia cells) was “did not affect” each time. Also, in the data set with A549 cells, the autophagic activity is 1.5 fold of untreated cells. Further, the percent hemolysis in the data set with Human red blood cells was 7.8% ± 10.2%.
